System: capillary permeability brought about by septide (substance P agonist)
Test: inhibition of the increase of capillary permeability brought about by septide
Format: in vivo
Settings: Cavia porcellus, guinea pig, septide-induced capillary permeability
From the text: The study of certain isoindole derivatives of general formula (I) in the technique of A. Saria et al., Arch.

COc1ccccc1[C@H](C)C(=O)N1C[C@H]2C[C@H](C)C[C@](O)(c3ccccc3OC)[C@H]2C1 (relative stereo) [Example 1, (3aR*,4R*,6S*,7aS*)-4-(2-methoxyphenyl)-2-[2-(S)-(2-methoxyphenyl)propionyl]-6-methyl-4-perhydroisoindolol]
ED50 (iv): 0.07 mg/kg | ED50 (po): 3 to 10 mg/kg

From US5624950A, “Perhydroisoindole derivatives as substance P antagonists” (Rhone-Poulenc Rorer S.A., priority 1993, dated 1997)
